Results on 19 molecules are retold here after US11884675B2, “Heterocyclic compounds as triggering receptor expressed on myeloid cells 2 agonists and methods of use” (AMGEN INC., priority 2020, dated 2024).

Each structure is given as a SMILES string.

As a reminder, the EC50 is the concentration giving half of the maximal effect.

Chain of hTREM2 (Q9NZC2 19-230): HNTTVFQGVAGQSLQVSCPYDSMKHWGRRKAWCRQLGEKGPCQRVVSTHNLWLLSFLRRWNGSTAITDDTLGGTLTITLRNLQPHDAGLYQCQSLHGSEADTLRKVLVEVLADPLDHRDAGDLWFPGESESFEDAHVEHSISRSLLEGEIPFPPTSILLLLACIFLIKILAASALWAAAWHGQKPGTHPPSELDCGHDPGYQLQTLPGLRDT
Chain of hTREM2 (O43914 22-113 partner): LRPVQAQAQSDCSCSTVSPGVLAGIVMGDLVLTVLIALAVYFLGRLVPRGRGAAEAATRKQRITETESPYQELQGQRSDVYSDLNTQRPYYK

The target of the assay is hTREM2 (Homo sapiens, UniProt Q9NZC2). In words: TREM2 activity by cellular Syk phosphorylation (AlphaScreen/AlphaLISA) in TREM2/DAP12-HEK cells, used for Examples 1-305. In kind it is cell-based. Further details: expressed in transfected cells. Particulars: HEK293 Cells. Put shortly:
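Phospho-Syk (Tyr525/526) over total Syk quantified by AlphaScreen in lysates of cloned TREM2/DAP12-overexpressing HEK293 cells after 45 min compound treatment at room temperature, 1% final DMSO. Values expressed relative to 100 nM anti-TREM2 antibody (positive) and isotype IgG (negative) controls; curves fitted with 4-parameter logistic model.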
(Alpha assays give light when donor and acceptor beads are brought close together.)
For `Cc1nc2nc(N3CC[C@H](C(F)F)C3)nc(-c3ccc(F)cc3F)c2nc1C` [Example 244, (S)-2-(3-(difluoromethyl)pyrrolidin-1-yl)-4-(2,4-difluorophenyl)-6,7-dimethylpteridine], the EC50 fell in the range of 0.5 to 3 µM; the “hTREM2 Emax” value is “+++ (Emax>150 and ≤250)”.
Consider `Cc1nc2cc([C@@H]3CCO[C@@H](c4cnn(C)c4)C3)nc(-c3ccc(Cl)cc3F)c2nc1C` [Example 245, 5-(4-chloro-2-fluorophenyl)-2,3-dimethyl-7-((2R,4R)-2-(1-methyl-1H-pyrazol-4-yl)tetrahydro-2H-pyran-4-yl)pyrido[3,4-b]pyrazine], for which the concentration giving a half-maximal response (EC50) is 3 to 100 µM and the “hTREM2 Emax” value is on record as “++++ (Emax>250)”.
For `Cc1cnc2c(-c3ccc(Cl)cc3F)nc([C@H]3CCO[C@H](c4cnn(C)c4)C3)cc2n1` [Example 246, 5-(4-chloro-2-fluorophenyl)-2-methyl-7-((2S,4S)-2-(1-methyl-1H-pyrazol-4-yl)tetrahydro-2H-pyran-4-yl)pyrido[3,4-b] pyrazine], the EC50 was in the range of 3 to 100 µM; the “hTREM2 Emax” value is “+++ (Emax>150 and ≤250)”.
Consider `Cc1nc2nc(N3CC[C@H](C(F)F)C3)nc(-c3ccc(Cl)cc3F)c2nc1C` [Example 247, (S)-4-(4-chloro-2-fluorophenyl)-2-(3-(difluoromethyl)pyrrolidin-1-yl)-6,7-dimethylpteridine], for which the EC50 is 0.05 to 0.5 µM; the “hTREM2 Emax” value is “+++ (Emax>150 and ≤250)”.
As for `Cc1cnc2c(-c3ccc(Cl)cc3F)nc([C@@H]3CCO[C@H](c4cnn(C)c4)C3)cc2n1` [Example 248, 5-(4-chloro-2-fluorophenyl)-2-methyl-7-((2S,4R)-2-(1-methyl-1H-pyrazol-4-yl)tetrahydro-2H-pyran-4-yl)pyrido[3,4-b] pyrazine], the EC50 is 0.5 to 3 µM; the “hTREM2 Emax” value is “+++ (Emax>150 and ≤250)”.
In the case of `Cc1nc2nc([C@@H]3CCO[C@@H](c4cnn(C)c4)C3)cc(-c3ccc(Cl)cc3F)c2nc1C` [Example 249, 8-(4-chloro-2-fluorophenyl)-2,3-dimethyl-6-((2R,4R)-2-(1-methyl-1H-pyrazol-4-yl)tetrahydro-2H-pyran-4-yl)pyrido[2,3-b]pyrazine], the EC50 was in the range of 0.5 to 3 µM; the “hTREM2 Emax” value was “+++ (Emax>150 and ≤250)”.
Take `Cc1nc2nc([C@@H]3CCO[C@H](c4cnn(C)c4)C3)cc(-c3ccc(Cl)cc3F)c2nc1C` [Example 250, 8-(4-chloro-2-fluorophenyl)-2,3-dimethyl-6-((2S,4R)-2-(1-methyl-1H-pyrazol-4-yl)tetrahydro-2H-pyran-4-yl)pyrido[2,3-b]pyrazine]: the EC50 was 0.5 to 3 µM; the “hTREM2 Emax” value was “+++ (Emax>150 and ≤250)”.
For the molecule `Cc1nc2nc(N3CCO[C@@H]([C@H]4CCOC4)C3)nc(-c3ccc(F)cc3F)c2nc1C` [Example 251, (S)-4-(4-(2,4-difluorophenyl)-6,7-dimethylpteridin-2-yl)-2-((S)-tetrahydrofuran-3-yl)morpholine], the 50% effective concentration (EC50) fell in the range of 0.5 to 3 µM; the “hTREM2 Emax” value was “+++ (Emax>150 and ≤250)”.
For the molecule `Cc1cc([C@@H]2C[C@H](c3nc(-c4ccc(F)cc4F)c4nc(C)c(C)nc4n3)CCO2)ccn1` [Example 252, 4-(2,4-difluorophenyl)-6,7-dimethyl-2-((2S,4R)-2-(2-methylpyridin-4-yl)tetrahydro-2H-pyran-4-yl)pteridine], the EC50 is no more than 0.05 µM; the “hTREM2 Emax” value was “+++ (Emax>150 and ≤250)”.
On to `Cc1cnc2c(-c3ccc(F)cc3F)nc(N3CCO[C@H]([C@@H]4CCOC4)C3)nc2n1` [Example 253, (R)-4-(4-(2,4-difluorophenyl)-7-methylpteridin-2-yl)-2-((R)-tetrahydrofuran-3-yl)morpholine], for which the 50% effective concentration (EC50) lay in the range of 3 to 100 µM; the “hTREM2 Emax” value was “+++ (Emax>150 and ≤250)”.
For `Cc1nc2nc(N3CCO[C@@H](c4cnn(C)c4)C3)nc(C3=CCC(C(F)(F)F)CC3)c2nc1C` (stereo partly drawn) [Example 254, (2S)-4-(6,7-dimethyl-4-(4-(trifluoromethyl)cyclohex-1-en-1-yl)pteridin-2-yl)-2-(1-methyl-1H-pyrazol-4-yl)morpholine], the EC50 lay in the range of 0.05 to 0.5 µM; the “hTREM2 Emax” value is “+++ (Emax>150 and ≤250)”.
In the case of `Cc1nc2nc([C@@H]3CCO[C@H](c4cnn(C)c4)C3)cc(-c3ccc(F)cc3F)c2nc1C` [Example 255, 8-(2,4-difluorophenyl)-2,3-dimethyl-6-((2S,4R)-2-(1-methyl-1H-pyrazol-4-yl)tetrahydro-2H-pyran-4-yl)pyrido[2,3-b]pyrazine], the EC50 was in the range of 0.5 to 3 µM; the “hTREM2 Emax” value was “++ (Emax>100 and ≤150)”.
Consider `Cc1nc2nc([C@@H]3CCO[C@H](c4cnn(C)c4)C3)nc(-c3ccc(F)cc3F)c2nc1C` [Example 256, 4-(2,4-difluorophenyl)-6,7-dimethyl-2-((2S,4R)-2-(1-methyl-1H-pyrazol-4-yl)tetrahydro-2H-pyran-4-yl)pteridine], for which the EC50 fell in the range of 0.5 to 3 µM; the “hTREM2 Emax” value is “++ (Emax>100 and ≤150)”.
Turning to `Cc1nc2cc([C@@H]3CCO[C@H](c4cnn(C)c4)C3)nc(-c3ccc(F)cc3F)c2nc1C` [Example 257, 5-(2,4-difluorophenyl)-2,3-dimethyl-7-((2S,4R)-2-(1-methyl-1H-pyrazol-4-yl)tetrahydro-2H-pyran-4-yl)pyrido[3,4-b]pyrazine], the EC50 lay in the range of 0.5 to 3 µM; the “hTREM2 Emax” value was “++ (Emax>100 and ≤150)”.
On to `Cc1ccc(-c2nc([C@@H]3CCO[C@H](c4cnn(C)c4)C3)cc3nc(C)c(C)nc23)c(F)c1` [Example 258, 5-(2-fluoro-4-methylphenyl)-2,3-dimethyl-7-((2S,4R)-2-(1-methyl-1H-pyrazol-4-yl)tetrahydro-2H-pyran-4-yl)pyrido[3,4-b]pyrazine], for which the EC50 is 0.5 to 3 µM; the “hTREM2 Emax” value was “+++ (Emax>150 and ≤250)”.
For the molecule `Cc1cc([C@@H]2CN(c3nc(-c4ccc(Cl)cc4F)c4ccc(C)nc4n3)CCO2)cnn1` [Example 259, (R)-4-(4-(4-chloro-2-fluorophenyl)-7-methylpyrido[2,3-d]pyrimidin-2-yl)-2-(6-methylpyridazin-4-yl)morpholine], the EC50 was no more than 0.05 µM and the “hTREM2 Emax” value is “++++ (Emax>250)”.
`Cc1ccc2c(-c3ccc(Cl)cc3F)nc([C@@H]3CCO[C@H](c4cnn(C5CC5)c4)C3)nc2n1` [Example 260, 4-(4-chloro-2-fluorophenyl)-2-((2S,4R)-2-(1-cyclopropyl-1H-pyrazol-4-yl)tetrahydro-2H-pyran-4-yl)-7-methylpyrido [2,3-d]pyrimidine]: the EC50 is 0.5 to 3 µM; the “hTREM2 Emax” value is “+++ (Emax>150 and ≤250)”.
Turning to `Cc1cnc2c(-c3ccc(Cl)cc3F)nc(N3CCO[C@H](c4cnc(C)nc4)C3)nc2n1` [Example 261, (R)-4-(4-(4-chloro-2-fluorophenyl)-7-methylpteridin-2-yl)-2-(2-methylpyrimidin-5-yl)morpholine], the EC50 lay within 0.5 to 3 µM; the “hTREM2 Emax” value is “+++ (Emax>150 and ≤250)”.
The molecule `Cc1nc2nc(N3CCO[C@H](c4cnn(C)c4)C3)nc(N3CCC[C@@H](F)C3)c2nc1C` [Example 262, (R)-4-(4-((R)-3-fluoropiperidin-1-yl)-6,7-dimethylpteridin-2-yl)-2-(1-methyl-1H-pyrazol-4-yl)morpholine] yielded an EC50 of 3 to 100 µM.
